# Experimental data: paper PMC8615929, “Aspirin-Based Organoiron Dendrimers as Promising Anti-Inflammatory, Anticancer, and Antimicrobial Drugs” (Biomolecules, 2021)
# Where two headings read alike, the source gives them in different places.
# Legend:
# [1] = system: Bacillus subtilis (ATCC 6051); assay: Agar well diffusion antimicrobial assay; settings: ATCC6051, 24 h, read-out: inhibition zone, B. subtilis
# [2] = system: Staphylococcus aureus (ATCC12600); assay: Agar well diffusion antimicrobial assay; settings: ATCC12600, 24 h, read-out: inhibition zone, S. aureus
# [3] = system: carrageenan-induced paw edema; assay: Carrageenan-induced rat paw edema assay; type: in vivo; settings: oral
# Description: The present study was performed on adult albino Wistar rats, weighing 185 ± 200 g. Animals were kept in the animal house at MSA university. They were kept under suitable conditions of humidity and temperature (humidity 60–70%, temperature 24 ± 2 °C). The animals were fed by standard pellet chow (El-Nasr chemical Co., Cairo, Egypt) and were given access to water ad libitum.
# Inflammation was induced in all groups by carrageenan (0.2 mL, 1% saline solution), which was injected subcutaneously into the plantar surface of the right hind paw. Group 1 served as a normal group, group 2 received carrageenan only, and groups 3, 4, 5, 6, and 7 received the test drugs orally 1 h before carrageenan (n = 6). Edema was measured in diameter (mm) at 1 h, 2 h, 4 h, and 6 h after carrageenan injection using a digital caliper. Percentage edema inhibition was calculated as [1 − (sample diameter/control diameter)] × 100. All data of the paw edema are represented as mean ± SD.
# The strength of the tested dendrimers to inhibit edema (% edema inhibition) was calculated based on the changes in paw thickness (edema diameter, mm) at different periods; 1 h, 2 h, 4 h, and 6 h (Table 4).
# gastric mucosa [4] = assay: Evaluation of gastrointestinal toxicity (gastric ulcers); type: in vivo; settings: rat, 400 mg/kg orally, 4 h, mean ± standard deviation
# Description: The gastric mucosa was carefully inspected for the occurrence of ulcers with the aid of an illuminated magnifying lens (l0×), the ulcer score was calculated according to published method and ulcer index was determined using the reported formula [60]. Ulcer index = 10/x, where x= total mucosal area/ total ulcerated area. All data are represented as mean ± standard deviation.
# Rats were fasted for 24 h and then randomly allocated into the following groups to evaluate the potential toxicity of dendrimers on the stomach:
# Group 3 received G1 (400 mg/kg) orally.
# Group 4 received G2 (400 mg/kg) orally.
# Group 5 received G3 (400 mg/kg) orally.
# Group 6 received G4 (400 mg/kg) orally.
# Animals were left for 4 h and then sacrificed under light anesthesia for stomach dissection. The gastric mucosa was carefully inspected for the occurrence of ulcers with the aid of an illuminated magnifying lens (l0x), the ulcer score was calculated based on published study and ulcer index was determined using the reported formula [60]. Ulcer index = 10/x, where x= total mucosal area/total ulcerated area.
# Candida albicans = assay: Agar well diffusion antifungal assay
# PGE2 = assay: Determination of rat serum PGE2; type: in vivo; settings: 6 h after carrageenan, oral
# Description: Inflammation was induced in all groups by carrageenan (0.2 mL, 1% saline solution) injected subcutaneously into the plantar surface of the right hind paw. Group 1 served as a normal group, group 2 received carrageenan only, and groups 3, 4, 5, 6, and 7 received the test drugs orally 1 h before carrageenan (n = 6) [58]. Blood samples were collected from all groups and centrifuged for 15 minutes to separate the serum and measure serum PGE2 Pg/mL. Percentage inhibition was calculated as [1 − (sample PGE2 concentration/control PGE2 concentration)] × 100. All data of the PGE2 concentration are represented as mean ± SD.
# The ability of the dendrimers to inhibit PGE2 was evaluated by measuring the rat serum concentration of PGE2 in blood samples collected after 6 h from subcutaneous carrageenan injection.
# [5] = system: Escherichia coli (ATCC 1175); assay: Agar well diffusion antimicrobial assay; settings: ATCC1175, 24 h, read-out: inhibition zone, E. coli
# [6] = system: Klebsiella pneumoniae (ATCC10145); assay: Agar well diffusion antimicrobial assay; settings: ATCC10145, 24 h, read-out: inhibition zone, K. pneumoniae
# gastric mucosa [7] = assay: Histopathology examination of stomach; type: in vivo, rat
# Description: The stomach was dissected out, rinsed, and kept in a 10% neutral formalin solution. After fixation, tissues were routinely processed and stained with hematoxylin and eosin for light microscopy. Lesion scores were evaluated in this study according to a published report three parameters were evaluated in relation to their severity; epithelial cell loss was given a score from 0 to 3, hemorrhage was given a score from 0 to 4, and a score from 0 to 2 was given for inflammatory cell infiltration. The total score was given by the summation of the three scores.
# Aspergillus niger = assay: Agar well diffusion antifungal assay
# [8] = system: breast cancer cell lines (MCF-7); assay: MTT cell viability assay; type: cell-based; settings: Homo sapiens, MCF7, mean ± SE, unit inferred, read-out: Cytotoxicity (IC50), MCF-7
# Description: (§1) The cytotoxic activities of the tested dendrimers against the breast cancer cell line MCF-7, embryonic kidney non-cancer cells (HEK-293), and hepatic cellular Hep-G2 were evaluated by MTT assay. A cell suspension was diluted with complete medium to a concentration of 5 × 10^4 cell/ml. By using a micropipette, 100 μL aliquots of the cell suspension were pipetted into all wells of 96-well plate (~5000 cells/well). These plates were incubated at 37 °C for one day to allow cell attachment. Then, cells were treated using 100 µL of growth medium consisting of 0, 0.001, 0.01, 0.1, 1, 10, or 100 μL of the freshly prepared aspirin-based dendrimers in triplicate. After that, cells were rinsed with phosphate-buffered saline (PBS), and an appropriate fresh medium including 20 μL MTT in phosphate-buffered saline (0.5 mg/mL) was added to the test wells. The 96-well plate was then further incubated in a carbon dioxide incubator at 37 °C for another 4 h, and the MTT assay study was done. The MTT assay procedure is based on the reduction of the tetrazolium salt MTT to unsolvable purple formazan via metabolically effective cells, making their activities quantifiable via spectrophotometry. Consequently, the produced formazan crystals were dissolved in 120 μL DMSO solvent for each well. Cell viability was established by measuring the absorbance of each well at 570 nm, and at a reference wavelength of 630 nm using an ELISA plate reader. […] Vinblastine was used as the standard and the corresponding IC50 values were determined by Equation (1):(1) IC50(%)=ControlOD−CompoundOD/ControlODx 100
# MTT cell viability assay = type: cell-based; settings: human, mean ± SE, unit inferred
# Description: as §1
# COX-2 = target: T1, COX-2 (Ovis aries, UniProt P79208); assay: In vitro COX-2 inhibition assay (ovine COX-1/COX-2 assay kit); type: biochemical
# T1 construct: purchased
# T1 sequence (P79208 17-603): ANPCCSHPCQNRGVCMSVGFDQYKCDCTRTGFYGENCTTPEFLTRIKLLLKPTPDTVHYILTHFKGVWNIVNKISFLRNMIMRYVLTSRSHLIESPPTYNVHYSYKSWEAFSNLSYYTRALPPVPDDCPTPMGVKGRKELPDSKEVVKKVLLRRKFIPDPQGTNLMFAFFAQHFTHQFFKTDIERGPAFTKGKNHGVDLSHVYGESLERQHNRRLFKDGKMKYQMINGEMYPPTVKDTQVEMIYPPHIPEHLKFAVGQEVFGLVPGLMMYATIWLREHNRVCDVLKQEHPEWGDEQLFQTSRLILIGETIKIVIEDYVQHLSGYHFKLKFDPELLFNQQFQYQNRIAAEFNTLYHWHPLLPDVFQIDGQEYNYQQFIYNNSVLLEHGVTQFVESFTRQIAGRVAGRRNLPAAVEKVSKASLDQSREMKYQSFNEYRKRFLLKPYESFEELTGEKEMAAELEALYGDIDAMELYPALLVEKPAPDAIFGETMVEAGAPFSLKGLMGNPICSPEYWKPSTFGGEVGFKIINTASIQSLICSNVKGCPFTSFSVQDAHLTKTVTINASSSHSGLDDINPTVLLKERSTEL
# From the text: The selectivity index (SI values) was defined as IC50 COX-1/ IC50 COX-2.
# Recent studies on COX-1 and COX-2 inhibitors are focused on increasing the selectivity index of drugs towards […] as it acts as the main effector in the mechanism of pain and inflammation.
# [9] = rat stomach, compared to the aspirin group
# [10] = HEK-293 embryonic kidney non-cancer cells, normal cell line, read-out: Cytotoxicity (IC50), HEK-293
# [11] = Hep-G2 cells, read-out: Cytotoxicity (IC50), Hep-G2
# [12] = 15 mg/mL, agar well diffusion, 37 °C 24 h, mean ± SE
smiles,measurement,setting,value
CC1(C)S[C@@H]2[C@H](NC(=O)[C@H](N)c3ccccc3)C(=O)N2[C@H]1C(=O)O [Ampicillin],zone of inhibition at 15000 µg/mL,[1],25 ± 0.06 mm
same,zone of inhibition at 15000 µg/mL,[2],15 ± 0.05 mm
"CC(=O)Oc1ccccc1C(=O)O [Aspirin, acetylsalicylic acid]",% Inhibition of edema 1 h,[3]; 1 h after carrageenan,34.82%
same,% Inhibition of edema 2 h,[3]; 2 h after carrageenan,42.23%
same,% Inhibition of edema 4 h,[3]; 4 h after carrageenan,35.08%
same,% Inhibition of edema 6 h,[3]; 6 h after carrageenan,47.38%
same,zone of inhibition at 15000 µg/mL,[1],23 ± 0.08 mm
same,zone of inhibition at 15000 µg/mL,[2],30 ± 0.07 mm
same,"Gastric Mucosal Lesions, Ulcer Area",gastric mucosa [4],86.9 ± 9.51 mm²
same,"Gastric Mucosal Lesions, Ulcer Score",gastric mucosa [4],5.00 ± 0.00
same,zone of inhibition at 15000 µg/mL,"Candida albicans; Candida albicans, 24 h, read-out: inhibition zone, C. albicans",29 ± 0.09 mm
same,PGE2 Inhibition%,PGE2,72.40%
same,zone of inhibition at 15000 µg/mL,[5],18 ± 0.06 mm
same,zone of inhibition at 15000 µg/mL,[6],26 ± 0.11 mm
same,Epithelial loss score,gastric mucosa [7]; [9],significantly higher epithelial loss score
same,Hemorrhage score,gastric mucosa [7]; [9],highest score of hemorrhage
same,Histopathological findings of stomach tissue,"gastric mucosa [7]; rat, 400 mg/kg orally, H&E",serious histopathological alterations
same,zone of inhibition at 15000 µg/mL,"Aspergillus niger; Aspergillus niger, 24 h, read-out: inhibition zone, A. niger",30 ± 0.1 mm
same,IC50,[8],208.96 ± 0.05 µg/mL
same,IC50,MTT cell viability assay; [10],240.18 ± 0.03 µg/mL
same,IC50,MTT cell viability assay; [11],192.4 ± 0.04 µg/mL
COc1cccc2c1C(=O)c1c(O)c3c(c(O)c1C2=O)C[C@@](O)(C(=O)CO)C[C@@H]3O[C@H]1C[C@H](N)[C@H](O)[C@H](C)O1 [Doxorubicin],IC50,[8],5.7 ± 0.07 µg/mL
same,IC50,MTT cell viability assay; [10],205.07 ± 0.05 µg/mL
same,IC50,MTT cell viability assay; [11],4.8 ± 0.09 µg/mL
CNC(C)C1CCC(N)C(OC2C(N)CC(N)C(OC3OCC(C)(O)C(NC)C3O)C2O)O1 (centres unmarked) [Gentamicin],zone of inhibition at 15000 µg/mL,[5],17 ± 0.04 mm
same,zone of inhibition at 15000 µg/mL,[6],22 ± 0.02 mm
C[C@@H]1[C@H](O)[C@@H](C)/C=C/C=C/CC/C=C/C=C/C=C/C=C/C(O[C@H]2O[C@H](C)[C@@H](O)[C@H](N)[C@@H]2O)CC2O[C@](O)(CC(O)C(O)CCC(O)CC(O)CC(O)CC(=O)O[C@H]1C)CC(O)C2C(=O)O (some centres unmarked) [Nystatin],"inhibition zone, C. albicans",Candida albicans; [12],21 ± 0.11 mm
same,"inhibition zone, A. niger",Aspergillus niger; [12],15 ± 0.08 mm
CS(=O)(=O)c1ccc(C2=C(c3ccccc3)C(=O)OC2)cc1 [Rofecoxib],IC50,COX-2,25 nM
